Experimental data: patent EP4076478B1, “COMPOSITION AND METHOD FOR THE TREATMENT OF TYPE I DIABETES” (Vector Vitale IP LLC, priority 2019, dated 2021)

Experiment: Accumulation of metals in liver and kidney tissues after intraperitoneal administration
Format: in vivo, rats
Conditions: day 1 and day 7 after discontinuation of the substances

CC(=O)[O-].CC(=O)[O-].[Zn+2] [Zn acetate, Zn(CH3COO)2]
zinc in the kidney and liver tissues: significantly increased
